From US6166050A, “3,4-diamino-3-cyclobutene-1,2-dione derivatives which inhibit leukocyte adhesion mediated by VLA-4” (American Home Products Corporation, priority 1999, dated 2000) come the findings set out here.

pIC50: −log10 of the molar value. Read-outs that look alike come from different tables or passages of the source.

As a reminder, the IC50 is the concentration that gives 50% inhibition. As usually defined, the pIC50 is the negative decadic logarithm of the IC50, by convention in mol/L. Read a high pIC50 as a small IC50.

This assay addresses T1, α4 β1 integrin (VLA-4) (Homo sapiens, UniProt P05556+P13612).
T1 construct: Jurkat cells (ATCC #TIB-153) which express high levels of α4 β1 integrin (VLA-4); host or cells: Jurkat cells
Nature of the assay: Monovalent FACS Assay for α4 β1 Integrin/VCAM-1 Binding (inhibition of soluble VCAM-1 binding to Jurkat cells). Conditions: for IC50: Jurkat cells, rsVCAM-1, IC50 reflects 50% receptor occupancy, unit nM, read-out: IC50 (FACS). The protocol: The foregoing compounds were tested for VLA-4 binding activity using the following monvalent FACS assay. The IC50 for a compound reflects 50% receptor occupancy.
Monovalent FACS Assay for α4 β1 Integrin/VCAM-1 Binding
The VLA-4 binding activity of exemplary compounds was measured by measuring the inhibition of the interaction of soluble VCAM-1 with Jurkat cells (ATCC #TIB-153) which express high levels of α4 β1 integrin (VLA-4) using a modification of the fluorescence activated cell sorter (FACS) assay described by Yednock, et al., J. Biol. Chem., 1995, 270:28740. VCAM-1 interacts with the cell surface in an α4 β1 integrin-dependent fashion.
Jurkat cells were grown in RPMI 1640 supplemented with 10% fetal bovine serum, penicillin, streptomycin and glutamine as described by Yednock, supra.
Recombinant soluble VCAM-1 (rsVCAM-1) was produced in a baculovirus expression system as a chimeric fusion protein containing the seven immunoglobulin domains of VCAM-1 on the N-terminus and the human IgG1 heavy chain constant region on the C-terminus as described by Yednock, supra. Supernatant containing approximately 10 ug/ml rsVCAM-1 was collected after 72 hours and used in the assay without purification.
Jurkat cells (approximately 10^7 cells/ml) were treated with 1.5 mM MnCl2 and 5 μg/ml 15/7 for 30 minutes on ice to activate β1 integrin. Mn^+2 activates the receptor to enhance ligand binding, and 15/7 is a monoclonal antibody that recognizes an activated/ligand occupied conformation of α4 β1 integrin and locks the molecule into this conformation thereby stabilizing the VCAM-1/α4 β1 integrin interaction. Yednock, et al., supra. Antibodies similar to 15/7 have been prepared and may be used in this assay. For example, see, Luque, et al., 1996, J. Bio. Chem., 271: 11067.
Aliquots of 25 μl cells were incubated for 30 minutes at room temperature with compounds using a standard 5-point serial dilution. 15 μl of rsVCAM-Fc-containing baculovirus supernatant was added to the cells and incubated for 30 minutes on ice as described in Yednock, et al., supra.
Cells were washed twice and resuspended in 100 μl of a 1:100 dilution of FITC-conjugated goat anti-human IgG to detect the human Ig-VCAM-1 construct diluted in assay media containing 2.5% mouse serum to block potential cross-reactivity with cell surface bound 15/7. Cells were incubated on ice for 30 minutes in the dark. Cells were washed twice and analyzed with a standard FACS analysis as described in Yednock, et al., supra. on a FACScan flow cytometer (Becton Dickinson, Mountain View, Calif.).

T1 sequence (P13612 34-1032): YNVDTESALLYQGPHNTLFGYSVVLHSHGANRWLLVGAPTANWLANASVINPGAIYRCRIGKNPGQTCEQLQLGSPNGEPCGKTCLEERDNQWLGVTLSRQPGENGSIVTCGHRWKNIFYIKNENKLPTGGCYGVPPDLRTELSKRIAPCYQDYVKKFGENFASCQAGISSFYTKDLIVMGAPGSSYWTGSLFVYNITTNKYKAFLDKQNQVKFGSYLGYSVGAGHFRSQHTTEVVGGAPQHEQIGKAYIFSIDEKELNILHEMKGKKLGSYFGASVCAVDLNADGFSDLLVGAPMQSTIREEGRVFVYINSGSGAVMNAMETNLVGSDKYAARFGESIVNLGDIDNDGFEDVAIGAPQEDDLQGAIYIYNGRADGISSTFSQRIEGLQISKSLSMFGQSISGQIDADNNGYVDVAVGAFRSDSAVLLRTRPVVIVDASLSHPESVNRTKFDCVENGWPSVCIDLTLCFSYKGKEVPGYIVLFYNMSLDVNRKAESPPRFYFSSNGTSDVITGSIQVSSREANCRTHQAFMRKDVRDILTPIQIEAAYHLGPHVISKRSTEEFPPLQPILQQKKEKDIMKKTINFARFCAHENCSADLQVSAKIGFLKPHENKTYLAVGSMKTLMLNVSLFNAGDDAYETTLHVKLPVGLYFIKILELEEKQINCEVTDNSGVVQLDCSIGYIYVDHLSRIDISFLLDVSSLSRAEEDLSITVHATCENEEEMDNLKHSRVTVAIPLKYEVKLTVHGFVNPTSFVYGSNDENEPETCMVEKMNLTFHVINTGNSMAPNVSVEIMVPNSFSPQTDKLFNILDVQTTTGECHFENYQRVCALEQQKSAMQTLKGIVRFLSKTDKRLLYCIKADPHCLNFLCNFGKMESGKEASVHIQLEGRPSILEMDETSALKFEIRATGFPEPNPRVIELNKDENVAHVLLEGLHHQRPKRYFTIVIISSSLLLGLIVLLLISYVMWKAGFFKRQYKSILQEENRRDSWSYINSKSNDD
T1 sequence (P05556 21-798): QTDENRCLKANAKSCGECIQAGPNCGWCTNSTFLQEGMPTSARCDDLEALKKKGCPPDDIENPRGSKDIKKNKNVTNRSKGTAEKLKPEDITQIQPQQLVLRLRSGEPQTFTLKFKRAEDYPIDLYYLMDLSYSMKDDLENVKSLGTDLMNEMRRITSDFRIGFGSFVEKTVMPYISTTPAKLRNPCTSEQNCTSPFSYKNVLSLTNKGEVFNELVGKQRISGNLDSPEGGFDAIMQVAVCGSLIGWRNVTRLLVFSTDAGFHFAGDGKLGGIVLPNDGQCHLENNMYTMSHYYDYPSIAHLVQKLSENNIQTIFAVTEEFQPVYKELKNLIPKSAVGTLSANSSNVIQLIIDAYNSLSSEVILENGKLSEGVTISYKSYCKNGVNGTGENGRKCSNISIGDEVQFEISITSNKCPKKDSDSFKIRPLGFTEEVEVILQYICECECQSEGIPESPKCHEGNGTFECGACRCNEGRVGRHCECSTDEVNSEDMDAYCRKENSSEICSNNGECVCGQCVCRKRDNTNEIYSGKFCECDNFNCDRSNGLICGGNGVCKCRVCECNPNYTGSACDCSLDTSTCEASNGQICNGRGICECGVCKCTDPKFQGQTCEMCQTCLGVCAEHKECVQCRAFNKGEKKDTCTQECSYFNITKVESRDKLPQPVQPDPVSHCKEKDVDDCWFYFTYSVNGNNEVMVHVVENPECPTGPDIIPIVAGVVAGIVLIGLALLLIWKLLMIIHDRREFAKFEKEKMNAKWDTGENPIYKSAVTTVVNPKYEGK

On to `CN(C)C(=O)Oc1ccc(C[C@H](Nc2c(N(C)CCc3ccncc3)c(=O)c2=O)C(=O)O)cc1` [Example 63, (2S)-3-(4-Dimethylcarbamoyloxy-phenyl)-2-{2-[methyl-(2-pyridin-4-yl-ethyl)-amino]-3,4-dioxo-cyclobut-1-enylamino}-propionic acid], for which the 50% inhibitory concentration (IC50) was 1.6 nM. For the compound `CN1CCN(C(=O)Oc2ccc(C[C@H](Nc3c(N(C)CCc4ccccc4)c(=O)c3=O)C(=O)O)cc2)CC1` [Example 66, (2S)-3-[4-(4-methylpiperazinyl)carbamoyloxy-phenyl]-2-[2-(methyl-phenethyl-amino)-3,4-dioxo-cyclobut-1-enylamino]-propionic acid], the negative logarithm of the IC50 (pIC50) is 9.30. Consider `CN1CCN(C(=O)Oc2ccc(C[C@H](Nc3c(N(C)CCc4ccncc4)c(=O)c3=O)C(=O)O)cc2)CC1` [Example 68, (2S)-3-[4-(4-methylpiperazinyl)carbamoyloxy-phenyl)-2-{2-[methyl-(2-pyridin-4-yl-ethyl)-amino]-3,4-dioxo-cyclobut-1-enylamino}-propionic acid], for which the pIC50 is 8.89. Regarding `CCCCCCN(CCCCCC)c1c(N[C@@H](Cc2ccc(OC(=O)N3CCN(C)CC3)cc2)C(=O)O)c(=O)c1=O` [Example 70], the IC50 worked out at 0.2 nM.
